This passage reports Reduction, Ki and IC50 results from ChEMBL document CHEMBL1153676, “Muscarinic receptor probes based on amine congeners of pirenzepine and telenzepine” (Bioorg Med Chem Lett, 1992).

In test [1] the target is T1, Muscarinic acetylcholine receptor M1 (Rattus norvegicus) (UniProt P08482).
T1 sequence (whole entry): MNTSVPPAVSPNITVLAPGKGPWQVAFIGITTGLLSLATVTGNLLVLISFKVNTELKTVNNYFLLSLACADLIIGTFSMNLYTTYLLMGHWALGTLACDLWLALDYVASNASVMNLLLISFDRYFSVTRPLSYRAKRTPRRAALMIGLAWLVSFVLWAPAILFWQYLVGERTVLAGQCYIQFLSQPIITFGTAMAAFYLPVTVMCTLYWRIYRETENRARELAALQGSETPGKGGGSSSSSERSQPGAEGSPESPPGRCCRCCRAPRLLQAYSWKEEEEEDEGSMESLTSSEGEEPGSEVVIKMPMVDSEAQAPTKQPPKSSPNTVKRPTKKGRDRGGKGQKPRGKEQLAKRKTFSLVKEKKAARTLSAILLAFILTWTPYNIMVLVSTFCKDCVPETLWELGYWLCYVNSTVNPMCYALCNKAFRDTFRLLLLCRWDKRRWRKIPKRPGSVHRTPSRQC
Description: Percent reduction in specific binding of 0.5 nM [3H]N-methylscopolamine (NMS) to rat forebrain membranes following a 30 min pre-incubation at concentration of 0.5 uM. In kind it is cell membranes. To be noted: Membrane.

Test [2] has as its target T2, Muscarinic acetylcholine receptor M2 (Rattus norvegicus, UniProt P10980).
T2 sequence (P10980 whole entry): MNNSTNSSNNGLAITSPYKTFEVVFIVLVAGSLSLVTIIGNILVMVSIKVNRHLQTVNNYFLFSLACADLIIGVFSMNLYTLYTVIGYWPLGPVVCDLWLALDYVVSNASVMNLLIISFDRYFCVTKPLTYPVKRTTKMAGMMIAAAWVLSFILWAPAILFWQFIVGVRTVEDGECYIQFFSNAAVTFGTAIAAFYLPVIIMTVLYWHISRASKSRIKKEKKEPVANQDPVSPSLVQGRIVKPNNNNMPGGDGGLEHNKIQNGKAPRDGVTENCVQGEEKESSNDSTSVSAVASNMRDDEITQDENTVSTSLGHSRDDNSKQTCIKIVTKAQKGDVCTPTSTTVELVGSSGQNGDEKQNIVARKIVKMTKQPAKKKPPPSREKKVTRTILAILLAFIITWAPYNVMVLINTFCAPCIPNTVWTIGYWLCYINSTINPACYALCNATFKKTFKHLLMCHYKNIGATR
Description: Inhibitory constant by the inhibition of [3H]N-methylscopolamine (NMS) binding to Muscarinic acetylcholine receptor M2 of rat heart.

The target in test [3] is T3, Muscarinic acetylcholine receptor M1 (Rattus norvegicus, UniProt P08482).
T3 sequence (P08482 whole entry): T1 sequence (whole entry)
Description: Inhibitory concentration was evaluated for irreversible inhibition at rat forebrain muscarinic receptor.

`O=C1Nc2cccnc2N(C(=O)CN2CCN(CCCCCCCCNC(=S)Nc3cccc(N=C=S)c3)CC2)c2ccccc21`: the Reduction in test [1] was determined as 51.1%.

In turn, `O=C1Nc2cccnc2N(C(=O)CN2CCN(CCCCCCCCCNC(=S)Nc3cccc(N=C=S)c3)CC2)c2ccccc21` yielded a Reduction in test [1] of 48.7%.

As a reminder, the Ki is the equilibrium dissociation constant of an inhibitor or competing ligand from its target. Read a high Ki as lower affinity. Compound `Cc1scc2c1N(C(=O)CN1CCN(CCCCCCCCCCN)CC1)c1ccccc1NC2=O` had a Ki in test [2] of 3.7 nM.

What is called IC50 is the concentration that gives 50% inhibition. Read a high IC50 as weaker potency. In test [3], `O=C1Nc2cccnc2N(C(=O)CN2CCN(CCCCCCCCCCNC(=S)Nc3cccc(N=C=S)c3)CC2)c2ccccc21` had an IC50 of 0.15 nM. The same compound registered a Reduction in test [1] of 76%.
